One series concerns T cells. Description: T cell viability by flow cytometry (Annexin V and propidium iodide). The class given is cell-based, C57/BL6 mice. Here is the method: FIGS. 2A-2E, show proliferation and activation of T cells are inhibited by 2ME2. FIG. 2A, CD4^+ T cells were pre-treated with the indicated concentrations of 2ME2 and stimulated with plate-bound anti-CD3/28 or PMA/iono. Proliferation was assayed 24 hours (left) or 48 hours (right) later by 3H-thymidine incorporation. FIG. 2B, CD4^+ and CD8^+ T cells were stimulated with anti-CD3/28 in the presence of increasing concentrations of 2ME2. CD25 expression was assessed at 6 hours or 24 hours post-stimulation by flow cytometry. FIG. 2C, Quantification of CD25 expression in purified CD4^+ T cells pre-treated with increasing concentrations of 2ME2, and stimulated with anti CD3/28 or PMA/iono for 6 or 24 hours. FIG. 2D, T cells were pretreated with the indicated doses of 2ME2 and left untreated (left) or stimulated using plate-bound anti-CD3/28 (right). Viability was determined 24 hours or 48 hours post-stimulation by flow cytometry. FIG. 2E, human PBMC were activated with anti-human CD3/28 in the presence of increasing concentrations of 2ME2. Proliferation was determined 24 hours or 48 hours later by 3H-thymidine incorporation. Data are mean±SD of triplicate determinations and are representative of three separate donors. For FIG. 2A and FIG. 2E, data shown are the mean±SD of triplicate determinations, and are representative of 3 experiments. For FIG. 2B and FIG. 2C data is representative of two experiments.
Cells were pre-incubated with various concentrations of 2ME2 (Entremed) or vehicle (DMSO) for 30 minutes at 37° C.
Purified CD4^+ T cells were stimulated with plate-bound anti-CD3 (clone 2C11, BD, 10 ng/ml) plus anti-CD28 (clone 37.51, BD, 100 ng/ml). […] CD25 and CD69 expression was determined by flow cytometry (FACSCanto II, BD) and analyzed using FloJo software (Treestar Inc). Proliferation was assessed by 3H-thymidine incorporation. Viability and upregulation of cell surface markers on activated T cells were assessed by flow cytometry using Annexin V and propridium iodide. […]
Background: In flow cytometry, cells or beads pass a laser one at a time.

The test system of the next series is activated T cells. As to the kind of experiment: Quantitative real time PCR of mRNAs in activated T cells. Format: cell-based, C57/BL6 mice. In general terms: Real-time PCR tracks product formation cycle by cycle.
The subject of series [1] is LPS-induced TNFα production. Description: Serum TNFα in mice injected with LPS. The note with it: 2ME2-pretreated mice injected with LPS. The class given is in vivo.
For another series, the target named is T1, GPER1 (Mus musculus, UniProt Q8BMP4).
T1 construct: Purified C57/BL6 CD4^+ T cells were preincubated with the GPER1 antagonist G15; endogenous in cells; host or cells: purified primary CD4+ T cells from C57/BL6 mice
T1 sequence (Q8BMP4 1-375): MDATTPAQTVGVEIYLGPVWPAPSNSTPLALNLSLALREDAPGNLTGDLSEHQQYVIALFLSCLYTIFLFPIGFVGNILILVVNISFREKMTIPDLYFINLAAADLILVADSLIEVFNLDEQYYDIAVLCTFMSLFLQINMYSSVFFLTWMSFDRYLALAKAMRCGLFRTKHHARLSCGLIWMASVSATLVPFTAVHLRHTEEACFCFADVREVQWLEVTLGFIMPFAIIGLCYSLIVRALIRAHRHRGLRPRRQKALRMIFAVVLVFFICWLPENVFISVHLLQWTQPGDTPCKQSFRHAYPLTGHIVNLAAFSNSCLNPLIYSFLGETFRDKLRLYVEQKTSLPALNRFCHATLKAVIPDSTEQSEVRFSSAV
As to the kind of experiment: GPER1 dependence: CD25/CD69 on CD4+ T cells with G15 or G1. Format: cell-based, C57/BL6 mice. The note with it: at 6 hours. As to the method:
FIGS. 6A and 6B show purified CD4^+ T cells that were pretreated with 2-50 μM 2ME2 and/or the GPER1 antagonist G15, and subsequently stimulated with anti-CD3/28 for 6 hours. Activation of CD4^+ T cells was assessed by CD25 and CD69 upregulation, measured by flow cytometry. US, unstimulated. Data is shown as mean±SD for triplicate determinations, and is representative of two separate experiments.
Purified C57/BL6 CD4^+ T cells were preincubated with the GPER1 antagonist G15 (100 nM, Tocris) and 2ME2 (0-50 μM), or the GPER1 agonist G1 (1-100 nM, Tocris) for 30 minutes, and activated with plate bound anti-CD3 plus soluble anti-CD28. 6 hours later, cells were harvested, stained with anti-CD4 and anti-CD25. CD25 expression was monitored on a HTS FACSCanto II (BD) and analyzed with FloJo (Treestar Inc).

For series [2] the following is noted: oral 2ME2, mice and humans; cited from earlier work.

As usually defined, the bioavailability is the share of a dose that reaches the circulation, judged against a reference dose that is usually intravenous.

Consider `COc1cc2c(cc1O)CC[C@@H]1[C@@H]2CC[C@]2(C)[C@@H](O)CC[C@@H]12` [2ME2, 2-Methoxyestradiol], for which, in the series on T cells (24 hours), the “apoptosis in activated T cells” value is listed as “none was apparent” and the “apoptosis in un-stimulated T cells” value was “only a modest 2ME2-dependent increase in apoptosis”. In addition, the “viability of activated T cells” value in the series on T cells (48 hours post-stimulation) is “reduced viability”. In the series with activated T cells (2ME2 50 μM, anti-CD3/28), the “induction of CD25 mRNA” value is “decreased the induction”, the “induction of CD44 mRNA” value is given as “decreased the induction”, the “induction of IFNγ mRNA” value is on record as “decreased the induction” and the “induction of IL-2 mRNA” value is given as “decreased the induction”. The “induction of TNFα mRNA” value in the series on activated T cells (2ME2 50 μM, anti-CD3/28) is “decreased the induction”. In the series with activated T cells (3 hours post stimulation), the “mRNA levels of GATA3” value was “normal induction”. Moreover, the “up-regulation of IL-17 mRNA” value with activated T cells (after 3 hours and 24 hours anti-CD3/28 stimulation) is “blocking up-regulation”. Besides, the “upregulation of IL-4 mRNA” value with activated T cells (in response to TCR ligation) is recorded as “inhibited”. The “IL-17 production on re-stimulation” value with activated T cells (re-stimulation after 5 days activation) was “blocked”. Also, the “serum TNFα levels” value in series [1] was “no reduction”. Moreover, at GPER1, the cell viability entry was “Neither 2ME2, G1 nor G15 affected cell viability”. In series [2], the bioavailability is on record as 1.5%.
